Reference: patent US5872115A, “2-ureido-benzamide derivatives” (Grelan Pharmaceutical Co. Ltd., priority 1995, dated 1999)
pIC50: −log10 of the molar value.

Legend:
[1] = target: T1, ACAT of THP-1 cells (Homo sapiens, UniProt P35610); assay: In-vitro test using THP-1 intact cell (ACAT inhibition); format: cell-based; settings: read-out: IC50 THP1 (intact cell)
T1 construct: differentiated into macrophage-like cells by phorbol ester; endogenous in cells; host or cells: THP-1 (human leukemia), intact cells differentiated by phorbol ester
T1 sequence (P35610 1-550): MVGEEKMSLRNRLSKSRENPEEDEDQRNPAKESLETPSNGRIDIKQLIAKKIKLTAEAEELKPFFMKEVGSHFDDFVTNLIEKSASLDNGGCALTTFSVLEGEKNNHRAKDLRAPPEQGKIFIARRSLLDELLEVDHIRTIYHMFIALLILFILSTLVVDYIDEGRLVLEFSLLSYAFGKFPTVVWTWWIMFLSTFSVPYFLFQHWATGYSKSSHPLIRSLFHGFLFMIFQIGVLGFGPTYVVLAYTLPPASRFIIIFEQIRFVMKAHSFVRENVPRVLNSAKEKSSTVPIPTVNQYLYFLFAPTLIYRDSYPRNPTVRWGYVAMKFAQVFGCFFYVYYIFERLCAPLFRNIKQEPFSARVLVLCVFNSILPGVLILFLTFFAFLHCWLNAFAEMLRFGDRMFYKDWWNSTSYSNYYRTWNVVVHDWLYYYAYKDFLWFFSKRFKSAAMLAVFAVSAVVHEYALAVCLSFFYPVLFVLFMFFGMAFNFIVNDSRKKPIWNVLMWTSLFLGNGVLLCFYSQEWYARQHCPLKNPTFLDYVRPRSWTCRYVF
Protocol: (2) In-vitro Test Using THP-1 Intact Cell
About 2 million cells of human leukemia cell line, THP-1 were seeded in a well with 2 ml of medium and differentiated into macrophage-like cells by phorbol ester. Then, the cells were washed with phosphate-buffered saline (PBS) solution and the medium was replaced by fresh medium supplemented with 10% of lipoprotein-deficient serum. After the addition of each test compound dissolved in dimethyl sulfoxide and 100 μg protein-containing human low density lipoprotein (LDL), the reaction was initiated by the addition of 10 nmoles of labeled [^14 C]oleic acid and 10 nmoles of oleic acid complexed with BSA in PBS solution. After 22 hours, the reaction was stopped by removal the medium and CHCl3 -MeOH (2:1) were added to the cell suspension in order to extract lipids.
Intracellular [^14 C] cholesterol-oleate formed was separated by thin-layer chromatography and the radioactivity was counted with lipid scintillation counter.
(§1) ACAT inhibitory activities of the test compounds were shown as IC50 values.

[2] = system: ACAT of HepG2 microsome; assay: In-vitro test using Hep G2 microsome (ACAT inhibition); format: biochemical, human
Protocol: (1) In-vitro Test Using Hep G2 Microsome
ACAT enzyme fraction was prepared from microsome of human derived hepatoma Hep G2 cell according to Sandra's method [Journal of Lipid Research, 27, 875 (1986)].
Microsome was suspended at a concentration of 200 μg protein/20 μl in 0.1M phosphate buffer solution (pH7.4) and the suspension was preincubated at 37° C. for 5 minutes after addition of 10 μl of each test compound dissolved in 0.1M phosphate buffer solution containing bovine serum albmin (BSA). Then, the reaction was initiated by the addition of 5 nmoles of labeled [^14 C]-oleoyl-CoA dissolved in 20 μl of the said phosphate buffer solution containing BSA and the reaction was stopped by the addition of 20 μl of 2N HCl after 10 minutes. [^14 C] cholesterol-oleate formed was separated by thin-layer chromatography and the radioactivity was counted with liquid scintillation counter.
as §1

[3] = Acute toxicity, male ICR strain mouse; format: in vivo; settings: 1000 mg/kg orally, seven days after administration
Protocol: (1) Acute toxicity: Nine compounds (Example Nos. 1, 2, 5, 6, 12, 19, 28, 31 and 45) were tested by using male ICR strain mouse weighing 23.0±0.7 g.

[4] = target: T2, THP-1 microsomal ACAT (Homo sapiens, UniProt P35610); assay: Bioavailability assessment of ACAT inhibitors by their ex vivo activity (serum of dosed mice on THP-1 microsomal ACAT); format: in vivo; settings: female mice, 30 mg/kg per os, 1% CMC-Na 0.2% Tween 80; maximum inhibition by serum
T2 construct: ACAT enzyme fraction was prepared from microsome of human leukemia THP-1 cell; endogenous in cells; host or cells: THP-1 (human leukemia), microsomes
T2 sequence (P35610 1-550): T1 sequence (P35610 1-550)
Protocol: (5) Bioavailability Assessment of ACAT Inhibitors by Their <<ex vivo>> Activity
[…] Blood samples were collected 0.5, 1, 1.5, 2, 6 hour postdose. Serum were harvested after gentle centrifugation and stored at -20.
The following day, 10 μl serum were preincubated at 37 for 5 minutes with 20 μl of THP-1 microsomal ACAT and then incubated 10 minutes with 20 μl of radiolabeled oleoyl-CoA as described above in method (4). The serum is used instead of the drug solution.
ACAT inhibitory activities of the test compounds were shown as maximum inhibition percentages (Imax).

[5] = target: T2, THP-1 microsomal ACAT; assay: In vitro test using THP-1 microsome (ACAT inhibition); format: biochemical; settings: THP-1 microsome; read-out: IC50 THP1 microsome
Protocol: (4) In Vitro Test Using THP-1 Microsome
Then, the reaction was initiated by the addition of 5 nmoles of labeled [^14 C] oleoyl-CoA dissolved in 20 μl of said phosphate buffer solution containing BSA and the reaction was stopped by the addition of 20 μl of 2N HCl after 10 minutes. [^14 C] cholesterol-oleate formed was separated by thin-layer chromatography and the radioactivity was counted with liquid scintillation counter.

CCCCNC(=O)Nc1ccccc1C(=O)NCC1CCN(C(c2ccccc2)c2ccccc2)CC1 [Example 2, 2-(N'-n-Butylureido)-N-[(1-diphenylmethylpiperidin-4-yl)methyl]benzamide]
pIC50 [1]: 7.00
pIC50 [2]: 6.00
macroscopic changes on any organs at autopsy [3]: no macroscopic changes were observed

CCCCCNC(=O)Nc1ccccc1C(=O)NCC1CCN(C(c2ccccc2)c2ccccc2)CC1 [Example 3, 2-(N'-n-Pentylureido)-N-[(1-diphenylmethylpiperidin-4-yl)methyl]benzamide]
pIC50 [1]: 7.00
pIC50 [2]: 6.05

CCCCCCNC(=O)Nc1ccccc1C(=O)NCC1CCN(C(c2ccccc2)c2ccccc2)CC1 [Example 4, 2-(N'-n-Hexylureido)-N-[(1-diphenylmethylpiperidin-4-yl)methyl]benzamide]
pIC50 [1]: 7.05
pIC50 [2]: 6.05

CCCCCCCCNC(=O)Nc1ccccc1C(=O)NCC1CCN(C(c2ccccc2)c2ccccc2)CC1 [Example 6, 2-(N'-n-Octylureido)-N-[(1-diphenylmethylpiperidin-4-yl)methyl]benzamide]
pIC50 [1]: 7.30
pIC50 [2]: 5.80
macroscopic changes on any organs at autopsy [3]: no macroscopic changes were observed

CCCCCCCCCCNC(=O)Nc1ccccc1C(=O)NC1CCN(C(c2ccccc2)c2ccccc2)CC1 [Example 12, 2-(N'-n-Decylureido)-N-(1-diphenylmethylpiperidin-4-yl)benzamide]
pIC50 [1]: 6.15
pIC50 [2]: 5.10
macroscopic changes on any organs at autopsy [3]: no macroscopic changes were observed

CCCCCCCNC(=O)Nc1ccc(O)cc1C(=O)NCCC(c1ccccc1)c1ccccc1 [Example 19, 2-(N'-n-Heptylureido)-5-hydroxy-N-(3,3-diphenylpropyl)benzamide]
pIC50 [1]: 7.00
pIC50 [2]: 5.44
macroscopic changes on any organs at autopsy [3]: no macroscopic changes were observed

CCCCCCCNC(=O)Nc1ccccc1C(=O)NCCC1CCN(C(c2ccccc2)c2ccccc2)CC1 [Example 28, 2-(N'-n-Heptylureido)-N-[2-(1-diphenylmethylpiperidin-4-yl)ethyl]benzamide]
pIC50 [1]: 7.00
pIC50 [2]: 5.92
macroscopic changes on any organs at autopsy [3]: no macroscopic changes were observed

CCCCCNC(=O)Nc1ccccc1C(=O)NCCC1CCN(C(c2ccccc2)c2ccccc2)CC1 [Example 29, 2-(N'-n-Pentylureido)-N-[2-(1-diphenylmethylpiperidin-4-yl)ethyl]benzamide]
pIC50 [1]: 6.70
pIC50 [2]: 5.80

CCCCCCNC(=O)Nc1ccccc1C(=O)NCCC1CCN(C(c2ccccc2)c2ccccc2)CC1 [Example 30, 2-(N'-n-Hexylureido)-N-[2-(1-diphenylmethylpiperidin-4-yl)ethyl]benzamide]
pIC50 [1]: 6.70
pIC50 [2]: 5.92

CCCCCCCNC(=O)Nc1ccc(N(C)C)cc1C(=O)NC1CCN(C(c2ccccc2)c2ccccc2)CC1 [Example 31, 2-(N'-n-Heptylureido)-5-dimethylamino-N-(1-diphenylmethylpiperidin-4-yl)-benzamide]
pIC50 [1]: 6.70
pIC50 [2]: 6.10
macroscopic changes on any organs at autopsy [3]: no macroscopic changes were observed

CCCCCCCNC(=O)Nc1ccc(N(C)C)cc1C(=O)NCC1CCN(Cc2ccccc2-c2ccccc2)CC1 [Example 96, 2-(N'-n-Heptylureido)-5-dimethylamino-N-[1-(2-biphenylmethylpiperidin-4-yl)methyl]-benzamide]
Imax Ex vivo [4]: 20.45%
pIC50 [5]: 7.10

CCCCCNC(=O)Nc1ccc(N(C)C)cc1C(=O)NCC1CCN(C(c2ccccc2)c2ccccc2)CC1 [Example 100, 5-Dimethylamino-2-(N'-n-pentylureido)-N-[(1-diphenylmethylpiperidin-4-yl)methyl]benzamide]
Imax Ex vivo [4]: 39.01%
pIC50 [5]: 7.40

CCCCNC(=O)Nc1ccc(S(C)(=O)=O)cc1C(=O)NCC1CCN(C(c2ccccc2)c2ccccc2)CC1 [Example 111 (b), 2-(N'-n-butylureido)-5-methylsulfonyl-N-[(1-diphenylmethylpiperidin-4-yl)-methyl]benzamide]
Imax Ex vivo [4]: 63.56%
pIC50 [5]: 7.05
